Test results published in patent US7189749B2, “Substituted phenoxyacetic acids” (The Institutes for Pharmaceutical Discovery LLC, priority 1999, dated 2007).
Where two headings read alike, the source gives them in different places.

Tests used:
[1] = biological target: human aldose reductase (hALR2) (Homo sapiens, UniProt P15121); assay: inhibition of human aldose reductase (hALR2), methods similar to Butera et al.; format: biochemical
Experimental: Representative compounds of the invention were tested for their potency, selectivity and efficacy as inhibitors of human aldose reductase.

[2] = biological target: T1, human aldehyde reductase (hALR1) (Homo sapiens, UniProt P14550); assay: inhibition of human aldehyde reductase (hALR1), methods essentially of Ishii et al.; format: biochemical; details: for IC50: concentration required to inhibit human aldehyde reductase activity by 50%; for hALR1/hALR2: ratio of hALR1 IC50 to hALR2 IC50, selectivity
T1 sequence (P14550 1-325): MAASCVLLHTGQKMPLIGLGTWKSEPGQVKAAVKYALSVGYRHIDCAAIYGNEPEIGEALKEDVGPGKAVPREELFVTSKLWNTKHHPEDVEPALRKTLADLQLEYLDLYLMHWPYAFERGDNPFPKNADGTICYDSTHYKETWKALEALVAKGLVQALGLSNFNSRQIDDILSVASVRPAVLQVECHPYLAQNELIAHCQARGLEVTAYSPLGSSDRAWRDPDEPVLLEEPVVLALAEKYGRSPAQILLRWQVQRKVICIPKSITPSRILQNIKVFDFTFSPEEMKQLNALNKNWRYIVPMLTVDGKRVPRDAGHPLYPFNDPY
Experimental: In a second assay, a number of the same compounds were tested for their ability to inhibit aldehyde reductase (hAR1), a structurally related enzyme. […] Using this assay, the concentrations required to inhibit human aldehyde reductase activity by 50% (ICSO) were determined.
Since high potency of test compounds as inhibitors of aldose reductase is desirable, low hALR2 IC50 values are sought. On the other hand, high potency of test compounds as inhibitors of aldehyde reductase is undesirable, and high hALR1 IC50s values are sought. Accordingly, the hALR1/hALR2 ratio is used to determine the selectivity of the test compounds.

[3] = concentration required to inhibit human aldose reductase activity by 50%

| SMILES | IC50 [1, 3] | IC50 [2] | hALR1/hALR2 [2] | further results |
| --- | --- | --- | --- | --- |
| CSc1ccc(C(=O)NCc2ccc(Br)cc2F)c(OCC(=O)O)c1 [Example 24, [2-(4-Bromo-2-fluoro-benzylcarbamoyl)-5-methylsulfanyl-phenoxy]-acetic acid] | 0.083 µM | – | – | – |
| O=C(O)COc1cc(F)ccc1C(=O)NCc1cccc([N+](=O)[O-])c1 [Example 27, [5-Fluoro-2-(3-nitro-benzylcarbamoyl)-phenoxy]-acetic acid] | 0.008 µM | 34 µM | 4,300 | – |
| Cc1ccc(OCC(=O)O)c(C(=O)NCc2ccc(Br)cc2F)c1 [Example 20, [2-(4-Bromo-2-fluoro-benzylcarbamoyl)-4-methyl-phenoxy]-acetic acid] | 0.069 µM | 11 µM | 160 | – |
| O=C(O)COc1cc(F)c(F)cc1C(=S)NCc1ccc(Br)cc1F [Example 36, [2-(4-Bromo-2-fluoro-benzylthiocarbamoyl)-4,5-difluoro-phenoxy]-acetic acid] | 0.033 µM | – | – | – |
| O=C(O)COc1cc(Cl)ccc1C(=O)NCc1cccc([N+](=O)[O-])c1 [Example 5, [2-(3-Nitro-benzylcarbamoyl)-5-chloro-phenoxy]-acetic acid] | – | – | >4,200 | IC50 [1]: 0.006 µM; inhibition at 25 µM ([2]; read-out: hALR1 (aldehyde) % inhibition @ 25 μM): 19% |
| O=C(O)COc1ccc(OC(F)(F)F)cc1C(=S)NCc1cccc([N+](=O)[O-])c1 [Example 35, [2-(3-Nitro-benzylthiocarbamoyl)-4-trifluoromethoxy-phenoxy]-acetic acid] | 0.012 µM | – | – | – |
| O=C(O)COc1ccc(OC(F)(F)F)cc1C(=O)NCc1cccc([N+](=O)[O-])c1 [Example 26, [2-(3-nitro-benzylcarbamoyl)-4-trifluoromethoxy-phenoxy]-acetic acid] | 0.009 µM | – | – | – |
| O=C(O)COc1cc(F)ccc1C(=O)NCc1ccc(Br)cc1F [Example 28, [2-(4-Bromo-2-fluoro-benzylcarbamoyl)-5-fluoro-phenoxy]-acetic acid] | 0.055 µM | 6.6 µM | 120 | – |
| O=C(O)COc1cc(F)ccc1C(=S)NCc1nc2c(F)c(F)cc(F)c2s1 [Example 55, {5-Fluoro-2-[(4,5,7-trifluoro-benzothiazol-2-ylmethyl)-thiocarbamoyl]-phenoxy}-acetic acid] | 0.015 µM | 17 µM | 1,100 | – |
| O=C(O)COc1cc(F)c(F)cc1C(=O)NCc1ccc(Br)cc1F [Example 30, [2-(4-Bromo-2-fluoro-benzylcarbamoyl)-4,5-difluoro-phenoxy]-acetic acid] | 0.037 µM | – | – | – |
| O=C(O)COc1ccc([N+](=O)[O-])cc1C(=O)NCc1ccc(Br)cc1F [Example 21, [2-(4-Bromo-2-fluoro-benzylcarbamoyl)-4-nitro-phenoxy]-acetic acid] | 0.2 µM | – | – | – |
| Cc1cc(C(=S)NCc2cccc([N+](=O)[O-])c2)c(OCC(=O)O)cc1F [Example 48, [2-(3-Nitro-benzylthiocarbamoyl)-5-fluoro-4-methyl-phenoxy]-acetic acid] | 0.007 µM | – | – | – |
| O=C(O)COc1cc(F)ccc1C(=S)NCc1ccc(Br)cc1F [Example 33, [2-(4-Bromo-2-fluoro-benzylthiocarbamoyl)-5-fluoro-phenoxy]-acetic acid] | 0.034 µM | 33 µM | 970 | – |
| O=C(O)COc1cc(F)c(-c2ccccc2)cc1C(=S)NCc1cccc([N+](=O)[O-])c1 [Example 51, [5-(3-Nitro-benzylthiocarbamoyl)-2-fluoro-biphenyl-4-yloxy]-acetic acid] | 0.011 µM | 12 µM | 1,100 | – |
| O=C(O)COc1cc(F)ccc1C(=O)NCc1nc2cc(C(F)(F)F)ccc2s1 [Example 56, {5-Fluoro-2-[(5-trifluoromethyl-benzothiazol-2-ylmethyl)-carbamoyl]-phenoxy}-acetic acid] | 0.029 µM | 22 µM | 760 | – |
| O=C(O)COc1ccccc1C(=O)NCc1ccc(Br)cc1F [Example 23, [2-(4-Bromo-2-fluoro-benzylcarbamoyl)-phenoxy]-acetic acid] | 0.18 µM | – | – | – |
| O=C(O)COc1ccc(Cl)cc1C(=O)NCc1ccc(Br)cc1F [Example 17, [2-(4-Bromo-2-fluoro-benzylcarbamoyl)-4-chloro-phenoxy]-acetic acid] | 0.046 µM | 18 µM | 390 | – |
| Cc1ccc(OCC(=O)O)c(C(=O)NCc2cccc([N+](=O)[O-])c2)c1 [Example 25, [2-(3-Nitro-benzylcarbamoyl)-4-methyl-phenoxy]-acetic acid] | 0.011 µM | – | >9,100 | inhibition at 100 µM ([2]; read-out: hALR1 (aldehyde) % inhibition @ 100 μM): 48% |

| SMILES | IC50 [1, 3] | IC50 [2] | hALR1/hALR2 [2] | further results |
| --- | --- | --- | --- | --- |
| O=C(O)COc1cc(F)c(Br)cc1C(=O)NCc1cccc([N+](=O)[O-])c1 [Example 49, [4-Bromo-5-fluoro-2-(3-nitro-benzylcarbamoyl)-phenoxy]-acetic acid] | 0.006 µM | 44 µM | 7,300 | – |
| O=C(O)COc1ccc(Br)cc1C(=S)NCc1ccc(Br)cc1F [Example 34, [4-Bromo-2-(4-bromo-2-fluoro-benzylthiocarbamoyl)-phenoxy]-acetic acid] | 0.037 µM | – | – | – |
| O=C(O)COc1cc(F)c(N2CCOCC2)cc1C(=O)NCc1cccc([N+](=O)[O-])c1 [Example 53, [2-(3-Nitro-benzylcarbamoyl)-5-fluoro-4-morpholin-4-yl-phenoxy]-acetic acid] | 0.007 µM | 54 µM | – | – |
| O=C(O)COc1cc(Cl)ccc1C(=O)NCc1cc(F)cc(C(F)(F)F)c1 [Example 11, [5-Chloro-2-(3-fluoro-5-trifluoromethyl-benzylcarbamoyl)-phenoxy]-acetic acid] | 0.029 µM | – | – | – |
| Cc1cc(C(=O)NCc2cccc([N+](=O)[O-])c2)c(OCC(=O)O)cc1F [Example 47, [2-(3-Nitro-benzylcarbamoyl)-5-fluoro-4-methyl-phenoxy]-acetic acid] | 0.008 µM | – | – | – |
| O=C(O)COc1cc(Cl)ccc1C(=O)NCc1nc2cc(C(F)(F)F)ccc2s1 [Example 57, {5-Chloro-2-[(5-trifluoromethyl-benzothiazol-2-ylmethyl)-carbamoyl]-phenoxy}-acetic acid] | 0.035 µM | – | – | – |
| O=C(O)COc1cc(Cl)ccc1C(=O)NCc1ccc(Br)cc1F [Example 1, [2-(4-Bromo-2-fluoro-benzylcarbamoyl)-5-chloro-phenoxy]-acetic acid] | 0.03 µM | 14 µM | 470 | – |
| Cc1cc(C(=S)NCc2ccc(Br)cc2F)c(OCC(=O)O)cc1F [Example 46, [2-(4-Bromo-2-fluoro-benzylthiocarbamoyl)-5-fluoro-4-methyl-phenoxy]-acetic acid] | 0.024 µM | 31 µM | 1,300 | – |
| N#Cc1cc(C(=O)NCc2cccc([N+](=O)[O-])c2)c(OCC(=O)O)cc1F [Example 52, [2-(3-Nitro-benzylcarbamoyl)-4-cyano-5-fluoro-phenoxy]-acetic acid] | 0.007 µM | – | – | – |
| Cc1cc(C(=O)NCc2ccc(Br)cc2F)c(OCC(=O)O)cc1F [Example 45, [2-(4-Bromo-2-fluoro-benzylcarbamoyl)-5-fluoro-4-methyl-phenoxy]-acetic acid] | 0.024 µM | 5.8 µM | 240 | – |
| O=C(O)COc1ccc(Br)cc1C(=O)NCc1ccc(Br)cc1F [Example 19, [4-Bromo-2-(4-bromo-2-fluoro-benzylcarbamoyl)-phenoxy]-acetic acid] | 0.064 µM | – | – | – |
| O=C(O)COc1cc(Cl)ccc1C(=O)NCc1cccc(C(F)(F)F)c1 [Example 4, [5-Chloro-2-(3-trifluoromethyl-benzylcarbamoyl)-phenoxy]-acetic acid] | 0.039 µM | – | – | – |
| O=C(O)COc1cc(F)ccc1C(=O)NCc1nc2c(F)c(F)cc(F)c2s1 [Example 54, {5-Fluoro-2[(4,5,7-trifluoro-benzothiazol-2-ylmethyl)carbamoyl]-phenoxy}-acetic acid] | 0.011 µM | 22 µM | 2,000 | – |
| O=C(O)COc1cc(F)ccc1C(=S)NCc1cccc([N+](=O)[O-])c1 [Example 32, [5-Fluoro-2-(3-nitro-benzylthiocarbamoyl)-phenoxy]-acetic acid] | 0.006 µM | 35 µM | 5,800 | – |
| O=C(O)COc1ccc(F)cc1C(=O)NCc1ccc(Br)cc1F [Example 18, [2-(4-Bromo-2-fluoro-benzylcarbamoyl)-4-fluoro-phenoxy]-acetic acid] | 0.15 µM | – | – | – |
| O=C(O)COc1cc(F)c(-c2ccccc2)cc1C(=O)NCc1cccc([N+](=O)[O-])c1 [Example 50, [5-(3-Nitro-benzylcarbamoyl)-2-fluoro-biphenyl-4-yloxy]-acetic acid] | 0.007 µM | 14 µM | 2,000 | – |
| Cc1ccc(CNC(=O)c2ccc(F)cc2OCC(=O)O)cc1[N+](=O)[O-] [Example 29, [5-Fluoro-2-(4-methyl-3-nitro-benzylcarbamoyl)-phenoxy]-acetic acid] | 0.008 µM | – | – | – |
| O=C(O)COc1cc(Cl)ccc1C(=O)NCc1ccc(Cl)c(Cl)c1 [Example 14, [5-Chloro-2-(3,4-dichloro-benzylcarbamoyl)-phenoxy]-acetic acid] | 0.034 µM | 18 µM | 530 | – |
